Among the data in patent US8383629B2, “Inhibitors of 11β-hydroxysteroid dehydrogenase type 1” (Vitae Pharmaceuticals, Inc., priority 2008, dated 2013) are inhibition and IC50 values, retold here.

The test concerns the target T1, human 11β-HSD1 (Homo sapiens, UniProt P28845).
T1 construct: expressed in transfected cells; host or cells: CHO cells (microsomes)
Kind of test: Inhibition of microsomal preparation of 11β-HSD1 (SPA, Biological Test Example 1). Type of test: biochemical. The following applies: for inhibition at 0.1 µM: 100 nM; for IC50: microsomes from CHO cells overexpressing human 11β-HSD1, read-out: IC50 Range; for inhibition at 0.111 µM: 111 nM. Here is the method: The inhibition of microsomal preparation of 11β-HSD1 by compounds of the invention was measured essentially as previously described (K. Solly, S. S. Mundt, H. J. Zokian, G. J. Ding, A. Hermanowski-Vosatka, B. Strulovici, and W. Zheng, High-Throughput Screening of 11-Beta-Hydroxysteroid Dehydrogenase Type 1 in Scintillation Proximity Assay Format. Assay Drug Dev Technol 3 (2005) 377-384). All reactions were carried out at rt in 96 well clear flexible PET Microbeta plates (PerkinElmer). The assay begins by dispensing 49 μl of substrate solution (50 mM HEPES, pH 7.4, 100 mM KCl, 5 mM NaCl, 2 mM MgCl2, 2 mM NADPH and 160 nM [^3H]cortisone (1 Ci/mmol)) and mixing in 1 μL of the test compounds in DMSO previously diluted in half-log increments (8 points) starting at 0.1 mM. After a 10 minute pre-incubation, 50 μL of enzyme solution containing microsomes isolated from CHO cells overexpressing human 11β-HSD1 (10-20 μg/ml of total protein) was added, and the plates were incubated for 90 minutes at rt. The reaction was stopped by adding 50 μl of the SPA beads suspension containing 10 μM 18β-glycyrrhetinic acid, 5 mg/ml protein A coated YSi SPA beads (GE Healthcare) and 3.3 μg/ml of anti-cortisol antibody (East Coast Biologics) in Superblock buffer (Bio-Rad). The plates were shaken for 120 minutes at rt, and the SPA signal corresponding to [^3H]cortisol was measured on a Microbeta plate reader.

Some results are limits rather than exact numbers.

T1 sequence (P28845 whole entry): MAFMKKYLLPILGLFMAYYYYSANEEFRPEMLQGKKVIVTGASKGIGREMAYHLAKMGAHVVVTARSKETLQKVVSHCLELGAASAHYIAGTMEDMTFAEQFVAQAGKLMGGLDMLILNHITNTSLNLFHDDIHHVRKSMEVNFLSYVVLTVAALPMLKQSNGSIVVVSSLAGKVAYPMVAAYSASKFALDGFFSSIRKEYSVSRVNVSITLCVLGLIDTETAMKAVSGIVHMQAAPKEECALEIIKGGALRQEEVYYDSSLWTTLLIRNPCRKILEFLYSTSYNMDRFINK

By inhibition is commonly meant the drop in the measured response relative to a control, in per cent. The term IC50 denotes the point on the concentration scale where inhibition reaches its midpoint. As to `O=C(O)CC1CC2(CCN(C(=O)/C=C/c3ccccc3C(F)(F)F)CC2)c2c(Br)cccc21` (single isomer, unassigned; isomer 1) [EXAMPLE 2.1, (±)-(E)-2-(7-bromo-1′-(3-(2-(trifluoromethyl)phenyl)acryloyl)-2,3-dihydrospiro[indene-1,4′-piperidine]-3-yl)acetic acid isomer 1], testing at 0.1 µM gave an inhibition of 96.6% and the 50% inhibitory concentration (IC50) is less than 100 nM.

`CN1C(=O)C2(CCN(C(=O)Cc3ccccc3C(F)(F)F)CC2)c2ccccc21` [EXAMPLE 48, 1-methyl-1′-(2-(2-(trifluoromethyl)phenyl)acetyl)spiro[indoline-3,4′-piperidin]-2-one]: testing at 0.1 µM gave an inhibition of 80.6%, the inhibition at 0.111 µM was determined as 86.3% and the IC50 was less than 100 nM.

For `CCOC(=O)CC1CC2(CCN(C(=O)NCc3ccccc3C(F)(F)F)CC2)c2c(Br)cccc21` (stereo not drawn) [EXAMPLE 92, Ethyl 2-(7-bromo-1′-(2-(trifluoromethyl)benzylcarbamoyl)-2,3-dihydrospiro[indene-1,4′-piperidine]-3-yl)acetate], the inhibition at 0.111 µM is 70.5% and the IC50 is less than 100 nM.

For the molecule `O=C1CC2(CCN(C(=O)CNc3ccccc3C(F)(F)F)CC2)c2c(Br)cccc21` [EXAMPLE 107], the IC50 lay in the range of 100 to 1000 nM.

Regarding `CS(=O)(=O)N1Cc2ccccc2C2(CCN(C(=O)CCc3ccccc3C(F)(F)F)CC2)C1` [EXAMPLE 60, 1-(2-(methylsulfonyl)-2,3-dihydro-1H-spiro[isoquinoline-4,4′-piperidine]-1′-yl)-3-(2-(trifluoromethyl)phenyl)propan-1-one], the inhibition at 0.111 µM was determined as 92.6% and the IC50 is less than 100 nM.

With `CN1C(=O)C2(CCN(C(=O)CCc3ccccc3C(F)(F)F)CC2)c2cc(C#N)ccc21` [EXAMPLE 79, 1-methyl-2-oxo-1′-(3-(2-(trifluoromethyl)phenyl)propanoyl)spiro[indoline-3,4′-piperidine]-5-carbonitrile], the inhibition at 0.111 µM was found to be 51.4% and the IC50 fell in the range of 100 to 1000 nM.

For `O=C(NCc1ccccc1-c1ccccc1)N1CCC2(CC1)OCc1ccccc12` [EXAMPLE 85, N-(biphenyl-2-ylmethyl)-3H-spiro[isobenzofuran-1,4′-piperidine]-1′-carboxamide], at 0.111 µM the inhibition was 19.4% and the IC50 was in the range of 100 to 1000 nM.

Turning to `CCOC(=O)CC1CC2(CCN(C(=O)N(C)Cc3ccccc3C(F)(F)F)CC2)c2c(Br)cccc21` (stereo not drawn) [EXAMPLE 101, Ethyl 2-(7-bromo-1′-(methyl(2-(trifluoromethyl)benzyl)carbamoyl)-2,3-dihydrospiro[indene-1,4′-piperidine]-3-yl)acetate], the inhibition at 0.111 µM was 42.6% and the IC50 was 100 to 1000 nM.

As to `CN1C(=O)C2(CCN(C(=O)/C=C/c3ccccc3C(F)(F)F)CC2)c2cc(C(=O)O)ccc21` [EXAMPLE 33, (E)-1-methyl-2-oxo-1′-(3-(2-(trifluoromethyl)phenyl)acryloyl)spiro[indoline-3,4′-piperidine]-5-carboxylic acid], testing at 0.111 µM gave an inhibition of 31.5% and the IC50 lay in the range of 100 to 1000 nM.

For the molecule `O=C1NC2(CCN(C(=O)Cc3ccccc3C(F)(F)F)CC2)c2c(Cl)cc(Cl)cc21` [EXAMPLE 50, 5,7-dichloro-1′-(2-(2-(trifluoromethyl)phenyl)acetyl)spiro[isoindoline-1,4′-piperidin]-3-one], the inhibition at 0.111 µM was 68.9% and the IC50 fell in the range of 100 to 1000 nM.

As for `CC(C)(C)OC(=O)N1Cc2ccccc2C2(CCN(C(=O)/C=C/c3ccccc3C(F)(F)F)CC2)C1` [EXAMPLE 20, (E)-tert-butyl 1′-(3-(2-(trifluoromethyl)phenyl)acryloyl)-1H-spiro[isoquinoline-4,4′-piperidine]-2(3H)-carboxylate], at 0.111 µM the inhibition was 29% and the concentration for half-maximal inhibition (IC50) was less than 100 nM.

In the case of `O=C(O)CC1CC2(CCN(C(=O)CCc3ccccc3C(F)(F)F)CC2)c2c(Cl)cccc21` (stereo not drawn) [EXAMPLE 73, 2-(7-chloro-1′-(3-(2-(trifluoromethyl)phenyl)propanoyl)-2,3-dihydrospiro[indene-1,4′-piperidine]-3-yl)acetic acid], the inhibition at 0.1 µM is 96.6%, testing at 0.111 µM gave an inhibition of 95.4% and the IC50 was less than 100 nM.

`CN1C(=O)C2(CCN(C(=O)/C=C/c3ccccc3C(F)(F)F)CC2)c2ccccc21` [EXAMPLE 31, (E)-1-methyl-1′-(3-(2-(trifluoromethyl)phenyl)acryloyl)spiro[indoline-3,4′-piperidin]-2-one]: the inhibition at 0.1 µM was 99.9% and the IC50 is less than 100 nM.

As to `Cc1ccc2c(c1)C1(CCN(C(=O)/C=C/c3ccccc3C(F)(F)F)CC1)CC2CC(=O)O` (racemic) [EXAMPLE 10, (±)-(E)-2-(6-methyl-1′-(3-(2-(trifluoromethyl)phenyl)acryloyl)-2,3-dihydrospiro[indene-1,4′-piperidine]-3-yl)acetic acid], the inhibition at 0.111 µM stood at 87.7% and the IC50 is less than 100 nM.

For `CC(C)(C)OC(=O)N1Cc2ccccc2C2(CCN(C(=O)CCc3ccccc3C(F)(F)F)CC2)C1` [EXAMPLE 57, tert-butyl 1′-(3-(2-(trifluoromethyl)phenyl)propanoyl)-1H-spiro[isoquinoline-4,4′-piperidine]-2(3H)-carboxylate], 0.111 µM produced 37.6% inhibition and the IC50 fell in the range of 100 to 1000 nM.

As for `O=C(O)CC1CC2(CCN(C(=O)/C=C/c3ccccc3C(F)(F)F)CC2)c2c(Br)cccc21` (racemic) [EXAMPLE 2, (±)-(E)-2-(7-bromo-1′-(3-(2-(trifluoromethyl)phenyl)acryloyl)-2,3-dihydrospiro[indene-1,4′-piperidine]-3-yl)acetic acid], the inhibition at 0.1 µM was found to be 91.7%, the inhibition at 0.111 µM was 97.4% and the half-inhibitory concentration (IC50) is less than 100 nM.

`COc1ccc2c(c1)CCNC21CCN(C(=O)Cc2ccccc2C(F)(F)F)CC1` [EXAMPLE 44, 1-(6-methoxy-3,4-dihydro-2H-spiro[isoquinoline-1,4′-piperidine]-1′-yl)-2-(2-(trifluoromethyl)phenyl)ethanone]: testing at 0.111 µM gave an inhibition of 69.9% and the IC50 is less than 100 nM.

For `O=C(O)CC1CC2(CCN(C(=O)Cc3ccc(Cl)cc3C(F)(F)F)CC2)c2c(Cl)cccc21` (stereo not drawn) [EXAMPLE 54, 2-(7-chloro-1′(2-(4-chloro-2-(trifluoromethyl)phenyl)acetyl)-2,3-dihydrospiro[indene-1,4′-piperidine]-3-yl)acetic acid], 0.1 µM produced 71.7% inhibition and the half-inhibitory concentration (IC50) is less than 100 nM.

Turning to `O=C(O)CC1CC2(CCN(C(=O)CCc3ccccc3C(F)(F)F)CC2)c2c(Br)cccc21` (stereo not drawn) [EXAMPLE 58, 2-(7-bromo-1′-(3-(2-(trifluoromethyl)phenyl)propanoyl)-2,3-dihydrospiro[indene-1,4′-piperidine]-3-yl)acetic acid], the inhibition at 0.1 µM is 97.1%, testing at 0.111 µM gave an inhibition of 87.4% and the IC50 was less than 100 nM.

Regarding `NC(=O)CC1CC2(CCN(C(=O)/C=C/c3ccccc3C(F)(F)F)CC2)c2c(Cl)cccc21` (racemic) [EXAMPLE 6, (±)-(E)-2-(7-chloro-1′-(3-(2-(trifluoromethyl)phenyl)acryloyl)-2,3-dihydrospiro[indene-1,4′-piperidine]-3-yl)acetamide], the inhibition at 0.111 µM came to 97.4% and the IC50 is less than 100 nM.

In the case of `O=C(CCc1ccccc1C(F)(F)F)N1CCC2(CC1)CC(O)c1cccc(Br)c12` (stereo not drawn) [EXAMPLE 64, 1-(7-bromo-3-hydroxy-2,3-dihydrospiro[indene-1,4′-piperidine]-1′-yl)-3-(2-(trifluoromethyl)phenyl)propan-1-one], the inhibition at 0.111 µM was determined as 100% and the half-maximal inhibitory concentration (IC50) was less than 100 nM.

For `CN1C(=O)c2ccccc2C12CCN(C(=O)/C=C/c1ccccc1C(F)(F)F)CC2` [EXAMPLE 24, (E)-2-methyl-1′-(3-(2-(trifluoromethyl)phenyl)acryloyl)spiro[isoindoline-1,4′-piperidin]-3-one], the inhibition at 0.111 µM was 82.3% and the 50% inhibitory concentration (IC50) was less than 100 nM.

For `CN1C(=O)C2(CCN(C(=O)CCc3ccccc3C(F)(F)F)CC2)c2ccccc21` [EXAMPLE 69, 1-methyl-1′-(3-(2-(trifluoromethyl)phenyl)propanoyl)spiro[indoline-3,4′-piperidin]-2-one], the inhibition at 0.1 µM was found to be 93.5%, the inhibition at 0.111 µM worked out at 93.8% and the IC50 is less than 100 nM.

With `O=C1Cc2ccccc2C2(CCN(C(=O)/C=C/c3ccccc3C(F)(F)F)CC2)N1` [EXAMPLE 42, (E)-1′-(3-(2-(trifluoromethyl)phenyl)acryloyl)-2H-spiro[isoquinoline-1,4′-piperidin]-3(4H)-one], testing at 0.111 µM gave an inhibition of 79.3% and the IC50 was less than 100 nM.

For `Cc1cccc(Cl)c1CNC(=O)N1CCC2(CC1)CC(CC(=O)O)c1cccc(Br)c12` (stereo not drawn) [EXAMPLE 91, 2-(7-bromo-1′-(2-chloro-6-methylbenzylcarbamoyl)-2,3-dihydrospiro[indene-1,4′-piperidine]-3-yl)acetic acid], the inhibition at 0.111 µM is 64.1% and the IC50 is less than 100 nM.
